Reference: ChEMBL document CHEMBL1139099, “Novel trifluoroacetophenone derivatives as malonyl-CoA decarboxylase inhibitors” (Bioorg Med Chem Lett, 2007)
pIC50: −log10 of the molar value.

Molecular target: T1, Malonyl-CoA decarboxylase, mitochondrial (Homo sapiens, UniProt O95822)
T1 sequence (O95822 whole entry): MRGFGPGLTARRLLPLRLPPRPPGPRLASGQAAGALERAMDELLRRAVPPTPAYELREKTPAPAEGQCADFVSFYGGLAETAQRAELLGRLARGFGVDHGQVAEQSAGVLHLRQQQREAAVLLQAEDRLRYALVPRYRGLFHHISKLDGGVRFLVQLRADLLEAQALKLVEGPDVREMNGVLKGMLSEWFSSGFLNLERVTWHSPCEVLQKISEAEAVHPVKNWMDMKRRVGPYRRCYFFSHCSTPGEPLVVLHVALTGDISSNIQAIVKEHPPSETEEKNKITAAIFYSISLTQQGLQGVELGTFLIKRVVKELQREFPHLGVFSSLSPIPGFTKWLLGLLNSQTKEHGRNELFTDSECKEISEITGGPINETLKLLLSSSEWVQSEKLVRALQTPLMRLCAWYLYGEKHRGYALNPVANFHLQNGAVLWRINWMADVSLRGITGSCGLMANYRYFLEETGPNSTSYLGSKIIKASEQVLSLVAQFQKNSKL
Assay: Inhibition of MBP fused human MCD

pIC50: 5.64
SMILES: O=C(NCC1CCCCC1)c1ccc(C(=O)C(F)(F)F)cc1
